Source: PubChem BioAssay AID1259407 (Chemical Carcinogenesis Research Information System (CCRIS), 2018)
The source made the active and inactive calls. How the calls were made is not given here.

Test system: CCRIS mutagenicity, Ames/micronucleus/aberration tests
Assay: CCRIS mutagenicity studies
[1] = Test System: AMES SALMONELLA TYPHIMURIUM, Strain/Indicator: TA98, Metabolic Activation: NONE, Method: PREINCUBATION
[2] = Test System: AMES SALMONELLA TYPHIMURIUM, Strain/Indicator: TA100, Metabolic Activation: NONE, Method: PREINCUBATION
[3] = Test System: AMES SALMONELLA TYPHIMURIUM, Strain/Indicator: TA1535, Metabolic Activation: NONE, Method: PREINCUBATION
[4] = Test System: AMES SALMONELLA TYPHIMURIUM, Strain/Indicator: TA1537, Metabolic Activation: NONE, Method: PREINCUBATION
[5] = Test System: AMES SALMONELLA TYPHIMURIUM, Strain/Indicator: TA100, Metabolic Activation: NONE, Method: STANDARD PLATE
[6] = Test System: AMES SALMONELLA TYPHIMURIUM, Strain/Indicator: TA98, Metabolic Activation: NONE, Method: STANDARD PLATE

CCCN(CCC)C(=O)SCC
mutagenic call (End Point: In vitro chromosomal aberrations, Test System: Chinese hamster ovary (CHO) cells, Metabolic Activation: None): inactive; negative | mutagenic call (End Point: In vitro chromosomal aberrations, Test System: Chinese hamster ovary (CHO) cells, Metabolic Activation: Rat, Liver, S-9): inactive; negative | mutagenic call (End Point: In vitro chromosomal aberrations, Test System: Mouse lymphoma cells, Strain/Indicator: L5178Y (tk+/tk-), Metabolic Activation: None): active; positive (structure and ploidy) | mutagenic call (End Point: In vitro chromosomal aberrations, Test System: Mouse lymphoma cells, Strain/Indicator: L5178Y (tk+/tk-), Metabolic Activation: S-9): inactive; negative | mutagenic call (Test System: AMES SALMONELLA TYPHIMURIUM, Strain/Indicator: TA97, Metabolic Activation: HAMSTER, LIVER, S-9, AROCLOR 1254 (10 OR 30%), Method: PREINCUBATION): inactive; negative | mutagenic call (Test System: AMES SALMONELLA TYPHIMURIUM, Strain/Indicator: TA97, Metabolic Activation: NONE, Method: PREINCUBATION): inactive; negative | mutagenic call (Test System: AMES SALMONELLA TYPHIMURIUM, Strain/Indicator: TA97, Metabolic Activation: RAT, LIVER, S-9, AROCLOR 1254 (10 OR 30%), Method: PREINCUBATION): inactive; negative | mutagenic call (Test System: AMES SALMONELLA TYPHIMURIUM, Strain/Indicator: TA98, Metabolic Activation: HAMSTER, LIVER, S-9, AROCLOR 1254 (10%), Method: PREINCUBATION): inactive; negative | mutagenic call (Test System: AMES SALMONELLA TYPHIMURIUM, Strain/Indicator: TA98, Metabolic Activation: HAMSTER, LIVER, S-9, AROCLOR 1254 (30%), Method: PREINCUBATION): inactive; negative | mutagenic call [1]: inactive; negative | mutagenic call (Test System: AMES SALMONELLA TYPHIMURIUM, Strain/Indicator: TA98, Metabolic Activation: RAT, LIVER, S-9, AROCLOR 1254 (10%), Method: PREINCUBATION): inactive; negative | mutagenic call (Test System: AMES SALMONELLA TYPHIMURIUM, Strain/Indicator: TA98, Metabolic Activation: RAT, LIVER, S-9, AROCLOR 1254 (30%), Method: PREINCUBATION): inactive; negative | mutagenic call (Test System: AMES SALMONELLA TYPHIMURIUM, Strain/Indicator: TA100, Metabolic Activation: HAMSTER, LIVER, S-9, AROCLOR 1254 (10%), Method: PREINCUBATION): inactive; negative | mutagenic call (Test System: AMES SALMONELLA TYPHIMURIUM, Strain/Indicator: TA100, Metabolic Activation: HAMSTER, LIVER, S-9, AROCLOR 1254 (30%), Method: PREINCUBATION): inactive; negative | mutagenic call [2]: inactive; negative | mutagenic call (Test System: AMES SALMONELLA TYPHIMURIUM, Strain/Indicator: TA100, Metabolic Activation: RAT, LIVER, S-9, AROCLOR 1254 (10%), Method: PREINCUBATION): inactive; negative | mutagenic call (Test System: AMES SALMONELLA TYPHIMURIUM, Strain/Indicator: TA100, Metabolic Activation: RAT, LIVER, S-9, AROCLOR 1254 (30%), Method: PREINCUBATION): inactive; negative | mutagenic call (Test System: AMES SALMONELLA TYPHIMURIUM, Strain/Indicator: TA1535, Metabolic Activation: HAMSTER, LIVER, S-9, AROCLOR 1254 (10 OR 30%), Method: PREINCUBATION): inactive; negative | mutagenic call [3]: inactive; negative | mutagenic call (Test System: AMES SALMONELLA TYPHIMURIUM, Strain/Indicator: TA1535, Metabolic Activation: RAT, LIVER, S-9, AROCLOR 1254 (10 OR 30%), Method: PREINCUBATION): inactive; negative | mutagenic call (Test System: AMES SALMONELLA TYPHIMURIUM, Strain/Indicator: TA1537, Metabolic Activation: HAMSTER, LIVER, S-9, AROCLOR 1254 (10 OR 30%), Method: PREINCUBATION): inactive; negative | mutagenic call [4]: inactive; negative | mutagenic call (Test System: AMES SALMONELLA TYPHIMURIUM, Strain/Indicator: TA1537, Metabolic Activation: RAT, LIVER, S-9, AROCLOR 1254 (10 OR 30%), Method: PREINCUBATION): inactive; negative | mutagenic call (Test System: Ames Salmonella typhimurium, Strain/Indicator: TA98, Metabolic Activation: None, Method: Plate incorporation amd preincubation (2 trials)): inactive; negative. (cytotoxicity at doses of 1000 ug/plate and above.) | mutagenic call (Test System: Ames Salmonella typhimurium, Strain/Indicator: TA98, Metabolic Activation: Rat, Liver, S-9, Aroclor, Method: Plate incorporation): inactive; negative. (cytotoxicity at doses of 1000 ug/plate and above.) | mutagenic call (Test System: Ames Salmonella typhimurium, Strain/Indicator: TA100, Metabolic Activation: None, Method: Plate incorporation amd preincubation (2 trials)): inactive; negative. (cytotoxicity at doses of 1000 ug/plate and above.) | mutagenic call (Test System: Ames Salmonella typhimurium, Strain/Indicator: TA100, Metabolic Activation: Rat, Liver, S-9, Aroclor, Method: Plate incorporation): inactive; negative. (cytotoxicity at doses of 1000 ug/plate and above.) | mutagenic call (Test System: Ames Salmonella typhimurium, Strain/Indicator: TA1535, Metabolic Activation: None, Method: Plate incorporation amd preincubation (2 trials)): inactive; negative. (cytotoxicity at doses of 1000 ug/plate and above.) | mutagenic call (Test System: Ames Salmonella typhimurium, Strain/Indicator: TA1535, Metabolic Activation: Rat, Liver, S-9, Aroclor, Method: Plate incorporation): inactive; negative. (cytotoxicity at doses of 1000 ug/plate and above.) | mutagenic call (Test System: Ames Salmonella typhimurium, Strain/Indicator: TA1537, Metabolic Activation: None, Method: Plate incorporation amd preincubation (2 trials)): inactive; negative. (cytotoxicity at doses of 1000 ug/plate and above.) | mutagenic call (Test System: Ames Salmonella typhimurium, Strain/Indicator: TA1537, Metabolic Activation: Rat, Liver, S-9, Aroclor, Method: Plate incorporation): inactive; negative. (cytotoxicity at doses of 1000 ug/plate and above.) | mutagenic call (Test System: E. coli, Strain/Indicator: WP2P/WP2P uvrA, Metabolic Activation: None, Method: Plate incorporation amd preincubation (2 trials)): inactive; negative. (cytotoxicity at doses of 1000 ug/plate and above.) | mutagenic call (Test System: E. coli, Strain/Indicator: WP2P/WP2P uvrA, Metabolic Activation: Rat, Liver, S-9, Aroclor, Method: Plate incorporation): inactive; negative. (cytotoxicity at doses of 1000 ug/plate and above.) | mutagenic call (Test System: Mouse lymphoma cells, Strain/Indicator: L5178Y (tk+/tk-), Metabolic Activation: None, Method: Not given by California Department of Pesticides Regulation): active; positive | mutagenic call (Test System: Mouse lymphoma cells, Strain/Indicator: L5178Y (tk+/tk-), Metabolic Activation: Rat, Liver, S-9, Method: Not given by California Department of Pesticides Regulation): active; positive | mutagenic call (Test System: UDS primary rat hepatocytes, Strain/Indicator: Thymidine incorporation, Method: Liquid scintillation counting): inactive; negative

COc1ccc2c(ccc3oc([N+](=O)[O-])cc32)c1
mutagenic call (Test System: AMES SALMONELLA TYPHIMURIUM, Strain/Indicator: TA100(NR), Metabolic Activation: NONE, Method: STANDARD PLATE): active; positive | mutagenic call [5]: active; positive

Cc1cc(N)c(C)c2c1[nH]c1ccc(O)cc12
mutagenic call [6]: inactive; negative | mutagenic call (Test System: AMES SALMONELLA TYPHIMURIUM, Strain/Indicator: TA98, Metabolic Activation: RAT LIVER S-9, AROCLOR 1254, Method: STANDARD PLATE): active; positive | mutagenic call [5]: inactive; negative | mutagenic call (Test System: AMES SALMONELLA TYPHIMURIUM, Strain/Indicator: TA100, Metabolic Activation: RAT LIVER S-9, AROCLOR 1254, Method: STANDARD PLATE): inactive; negative

CSC[C@H](NC(=O)C(C)(C)SC)C(=O)O
mutagenic call [1]: inactive; negative | mutagenic call [2]: inactive; negative | mutagenic call [3]: inactive; negative | mutagenic call [4]: inactive; negative | mutagenic call (Test System: AMES SALMONELLA TYPHIMURIUM, Strain/Indicator: TA1538, Metabolic Activation: NONE, Method: PREINCUBATION): inactive; negative | mutagenic call (Test System: E. COLI, Strain/Indicator: WP2, Metabolic Activation: NONE, Method: PREINCUBATION): inactive; negative | mutagenic call (Test System: E. COLI, Strain/Indicator: WP2 UVRA, Metabolic Activation: NONE, Method: PREINCUBATION): inactive; negative

N#Cc1cccc(/C=C/c2ccc(N)cc2)c1
mutagenic call (Test System: AMES SALMONELLA TYPHIMURIUM, Strain/Indicator: TA98(1,8-DNP6), Metabolic Activation: NONE, Method: STANDARD PLATE): inactive; negative | mutagenic call (Test System: AMES SALMONELLA TYPHIMURIUM, Strain/Indicator: TA98(1,8-DNP6), Metabolic Activation: S-9, Method: STANDARD PLATE): active; positive | mutagenic call [6]: active; positive | mutagenic call (Test System: AMES SALMONELLA TYPHIMURIUM, Strain/Indicator: TA98, Metabolic Activation: S-9, Method: STANDARD PLATE): active; positive | mutagenic call [5]: inactive; negative | mutagenic call (Test System: AMES SALMONELLA TYPHIMURIUM, Strain/Indicator: TA100, Metabolic Activation: S-9, Method: STANDARD PLATE): active; positive
